This assay has as its target interaction of human SOS1 (SOS1) with human K-RasG12C (Homo sapiens (Human), UniProt Q07889). Kind of assay: Biochemical assay: hK-RasG12C interaction assay with hSOS1 (HTRF). In kind it is binding. The settings on record: GST-hK-RasG12C with His-hSOS1, 60 min incubation at 20° C., mean, read-out: K-RasG12C - SOS interaction assay IC50 (mean). In outline: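 Compounds, duplicates at 11 concentrations from 0.073 nM to 20 µM, were preincubated 2 min with 10 nM GST-hK-RasG12C, then 20 nM His-hSOS1 was added, all at 20 °C. After 60 min, 665/620 nm HTRF ratio normalized to DMSO and SOS1-free controls; IC50 by 4-parameter fit.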
Chain of interaction of human SOS1 (SOS1) with human K-RasG12C (Q07889 564-1049 limits assumed): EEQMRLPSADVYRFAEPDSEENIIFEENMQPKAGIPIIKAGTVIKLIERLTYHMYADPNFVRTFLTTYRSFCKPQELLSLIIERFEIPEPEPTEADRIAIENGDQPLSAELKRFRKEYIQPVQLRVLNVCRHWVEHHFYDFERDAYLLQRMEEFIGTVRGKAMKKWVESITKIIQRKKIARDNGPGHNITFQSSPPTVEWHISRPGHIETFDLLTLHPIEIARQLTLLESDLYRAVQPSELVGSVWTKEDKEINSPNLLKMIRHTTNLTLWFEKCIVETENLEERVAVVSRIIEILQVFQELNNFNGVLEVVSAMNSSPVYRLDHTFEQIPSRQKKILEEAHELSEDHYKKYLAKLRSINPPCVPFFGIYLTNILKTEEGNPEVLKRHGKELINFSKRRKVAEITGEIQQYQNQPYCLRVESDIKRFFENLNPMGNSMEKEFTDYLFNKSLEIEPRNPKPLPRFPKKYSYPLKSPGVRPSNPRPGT
`CC(=O)N1CCP(=O)(c2cc3c(N[C@H](C)c4cccc(C(F)(F)F)c4C)nc(C(F)(F)F)nc3cn2)CC1` [Example 194]: the half-maximal inhibitory concentration (IC50) – broadly, the concentration that gives 50% inhibition – was found to be 12.1 nM.
To `CO[C@@H](C)C(=O)N1CCP(=O)(c2cc3c(N[C@H](C)c4cccc(C(F)(F)F)c4C)nc(C)nc3cn2)CC1` [Example 176, 1-[(2S)-2-methoxypropanoyl]-4-[2-methyl-4-{{(1R)-1-[2-methyl-3-(trifluoromethyl)phenyl]ethyl}amino)pyrido[3,4-d]pyrimidin-6-yl]-1,4lambda^5-azaphosphinan-4-one] belongs 6.82 nM; to `CC(=O)N1CCP(=O)(c2cc3c(N[C@H](C)c4cccc(C(F)(F)F)c4C)nc(C(F)F)nc3cn2)CC1` [Example 195], 6.56 nM; to `CC(=O)N1CCP(=O)(c2cc3c(N[C@H](C)c4cccc(C(F)(F)F)c4F)nc(C)nc3cn2)CC1` [Example 142, 1-acetyl-4-[4-{{(1R)-1-[2-fluoro-3-(trifluoromethyl)phenyl]ethyl}amino)-2-methylpyrido[3,4-d]pyrimidin-6-yl]-1,4lambda^5-azaphosphinan-4-one], 6.3 nM.
To `COCC(F)(F)c1cccc([C@@H](C)Nc2nc(C)nc3cnc(P4(=O)CCN(C(C)=O)CC4)cc23)c1F` [Example 139, 1-acetyl-4-[4-({(1R)-1-[3-(1,1-difluoro-2-methoxyethyl)-2-fluorophenyl]ethyl}amino)-2-methylpyrido[3,4-d]pyrimidin-6-yl]-1,4lambda^5-azaphosphinan-4-one] belongs 5.4 nM.
The figure for `CC(=O)N(C)CC(F)(F)c1cccc([C@@H](C)Nc2nc(C)nc3cnc(P4(=O)CCN(C(C)=O)CC4)cc23)c1F` [Example 201] is 5.81 nM; for `CCc1nc(P(C)(C)=O)cc2c(N[C@H](C)c3cccc(C(F)(F)C(O)CC)c3F)nc(C)nc12` (mixture of isomers) [Example 38, (2RS)-1-{3-[(1R)-1-{[6-(dimethylphosphoryl)-8-ethyl-2-methylpyrido[3,4-d]pyrimidin-4-yl]amino}ethyl]-2-fluorophenyl}-1,1-difluorobutan-2-ol] it is 10.7 nM.
Consider `Cc1nc(N[C@H](C)c2cccc(C(F)(F)C(C)(C)O)c2F)c2cc(P3(=O)CCN(Cc4ccccc4)CC3)ncc2n1` [Example 54, 1-benzyl-4-[4-({(1R)-1-[3-(1,1-difluoro-2-hydroxy-2-methylpropyl)-2-fluorophenyl]ethyl}amino)-2-methylpyrido[3,4-d]pyrimidin-6-yl]-1,4lambda^5-azaphosphinan-4-one], for which the IC50 is 22.5 nM.
The figure for `Cc1nc(N[C@H](C)c2cccc(C(F)F)c2F)c2cc(P3(=O)CCN(C(=O)[C@H](C)O)CC3)ncc2n1` [Example 157, 4-[4-{{(1R)-1-[3-(difluoromethyl)-2-fluorophenyl]ethyl}amino)-2-methylpyrido[3,4-d]pyrimidin-6-yl]-1-[(2S)-2-hydroxypropanoyl]-1,4lambda^5-azaphosphinan-4-one] is 5.04 nM; for `Cc1nc(N[C@H](C)c2cccc(C(F)(F)F)c2C)c2cc(P3(=O)CCN(C(=O)C(F)F)CC3)ccc2n1` [Example 207] it is 6.84 nM; for `Cc1nc(N[C@H](C)c2cccc(C(F)(F)F)c2C)c2cc(P3(=O)CCN(C(=O)C(F)F)CC3)ncc2n1` [Example 203] it is 5.65 nM.
The figure for `Cc1nc(N[C@H](C)c2cccc(C(F)(F)F)c2C)c2cc(P3(=O)CCN(C(=O)C4(CO)CC4)CC3)ncc2n1` [Example 178, 1-[1-(hydroxymethyl)cyclopropane-1-carbonyl]-4-[2-methyl-4-{{(1R)-1-[2-methyl-3-(trifluoromethyl)phenyl]ethyl}amino)pyrido[3,4-d]pyrimidin-6-yl]-1,4lambda^5-azaphosphinan-4-one] is 7.94 nM; for `CC(=O)N1CCP(=O)(c2cc3c(N[C@H](C)c4cccc(C(F)(F)C(=O)NC5CC5)c4F)nc(C)nc3cn2)CC1` [Example 44, 2-{3-[(1R)-1-{[6-(1-acetyl-4-oxo-1,4lambda^5-azaphosphinan-4-yl)-2-methylpyrido[3,4-d]pyrimidin-4-yl]amino}ethyl]-2-fluorophenyl}-N-cyclopropyl-2,2-difluoroacetamide] it is 15.9 nM.
To `COCC(F)(F)c1cccc([C@@H](C)Nc2nc(C)nc3cnc(P4(=O)CCCC4)cc23)c1F` [Example 93, 1-[4-{{(1R)-1-[3-(1,1-difluoro-2-methoxyethyl)-2-fluorophenyl]ethyl}amino)-2-methylpyrido[3,4-d]pyrimidin-6-yl]-1lambda^5-phospholan-1-one] belongs 37 nM; to `CC(=O)N1CCP(=O)(c2cc3c(N[C@H](C)c4cccc(C(F)(F)CN(C)S(C)(=O)=O)c4F)nc(C)nc3cn2)CC1` [Example 200], 3.95 nM.
On to `CC(=S)N1CCP(=O)(c2cc3c(N[C@H](C)c4cccc(C(F)(F)F)c4C)nc(C)nc3cn2)CC1` [Example 32, 1-ethanethioyl-4-[2-methyl-4-({(1R)-1-[2-methyl-3-(trifluoromethyl)phenyl]ethyl}amino)pyrido[3,4-d]pyrimidin-6-yl]-1,4lambda^5-azaphosphinan-4-one], for which the IC50 stood at 12.2 nM.
With `COC(C)(C)C(F)(F)c1cccc([C@@H](C)Nc2nc(C)nc3cnc(P4(=O)CCN(C(C)=O)CC4)cc23)c1F` [Example 140, 1-acetyl-4-[4-({(1R)-1-[3-(1,1-difluoro-2-methoxy-2-methylpropyl)-2-fluorophenyl]ethyl}amino)-2-methylpyrido[3,4-d]pyrimidin-6-yl]-1,4lambda^5-azaphosphinan-4-one], the IC50 came out at 11.4 nM.
The figure for `CCP(C)(=O)c1cc2c(N[C@H](C)c3cccc(C(F)(F)C(C)O)c3F)nc(C)nc2cn1` (single isomer, unassigned) [Example 74, (2R*)-1-{3-[(1R)-1-{{6-[ethyl(methyl)phosphoryl]-2-methylpyrido[3,4-d]pyrimidin-4-yl}amino)ethyl]-2-fluorophenyl}-1,1-difluoropropan-2-ol] is 24.6 nM.
The figure for `Cc1nc(N[C@H](C)c2cccc(C(F)(F)F)c2C)c2cc(P3(=O)CCN(C(C)C)CC3)ncc2n1` [Example 53, 4-[2-methyl-4-({(1R)-1-[2-methyl-3-(trifluoromethyl)phenyl]ethyl}amino)pyrido[3,4-d]pyrimidin-6-yl]-1-(propan-2-yl)-1,4lambda^5-azaphosphinan-4-one] is 65.4 nM; for `CC(=O)N1CCP(=O)(c2cc3c(N[C@H](C)c4cc(C)cc(C(F)(F)F)c4C)nc(C)nc3cn2)CC1` [Example 58, 1-acetyl-4-[4-{{(1R)-1-[2,5-dimethyl-3-(trifluoromethyl)phenyl]ethyl}amino)-2-methylpyrido[3,4-d]pyrimidin-6-yl]-1,4lambda^5-azaphosphinan-4-one] it is 6.33 nM.
Turning to `Cc1nc(N[C@H](C)c2cccc(C(F)(F)F)c2C)c2cc(P3(=O)CCN(C(=O)NCC(F)F)CC3)ncc2n1` [Example 185], the IC50 worked out at 3.86 nM.
`Cc1nc(N[C@H](C)c2cccc(C(F)(F)F)c2C)c2cc(P3(=O)CCN(Cc4ccccc4)CC3)ncc2n1` [Example 5, 1-benzyl-4-[2-methyl-4-({(1R)-1-[2-methyl-3-(trifluoromethyl)phenyl]ethyl}amino)pyrido[3,4-d]pyrimidin-6-yl]-1,4lambda^5-azaphosphinan-4-one]: the IC50 amounted to 261 nM.
With `Cc1nc(N[C@H](C)c2cccc(C(F)(F)C(C)(C)O)c2F)c2cc(P(=O)(C(C)C)C(C)C)c(C)nc2n1` [Example 21, 1-{3-[(1R)-1-({6-[di(propan-2-yl)phosphoryl]-2,7-dimethylpyrido[2,3-d]pyrimidin-4-yl}amino)ethyl]-2-fluorophenyl}-1,1-difluoro-2-methylpropan-2-ol], the IC50 was 121 nM.
`Cc1nc(N[C@H](C)c2cccc(C(F)(F)C(C)(C)O)c2F)c2cc(P3(=O)CCCC3)cnc2n1` [Example 16, 1-[4-({(1R)-1-[3-(1,1-difluoro-2-hydroxy-2-methylpropyl)-2-fluorophenyl]ethyl}amino)-2-methylpyrido[2,3-d]pyrimidin-6-yl]-1lambda^5-phospholan-1-one]: the IC50 is 10.6 nM.
The figure for `Cc1nc(N[C@H](C)c2cccc(C(F)(F)C(C)O)c2F)c2cc(P(C)(=O)C(C)C)ncc2n1` (single isomer, unassigned) [Example 80, (2R*)-1,1-difluoro-1-{2-fluoro-3-[(1R)-1-({2-methyl-6-[methyl(propan-2-yl)phosphoryl]pyrido[3,4-d]pyrimidin-4-yl}amino)ethyl]phenyl}propan-2-ol] is 5.88 nM.
The figure for `CCNC(=O)C(F)(F)c1cccc([C@@H](C)Nc2nc(C)nc3cnc(P(C)(C)=O)cc23)c1F` [Example 49, 2-{3-[(1R)-1-{[6-(dimethylphosphoryl)-2-methylpyrido[3,4-d]pyrimidin-4-yl]amino}ethyl]-2-fluorophenyl}-N-ethyl-2,2-difluoroacetamide] is 87.5 nM; for `Cc1nc(N[C@H](C)c2cccc(C(F)F)c2F)c2cc(P3(=O)CCN(C(=O)C4CC4)CC3)ncc2n1` [Example 163, 1-(cyclopropanecarbonyl)-4-[4-({(1R)-1-[3-(difluoromethyl)-2-fluorophenyl]ethyl}amino)-2-methylpyrido[3,4-d]pyrimidin-6-yl]-1,4lambda^5-azaphosphinan-4-one] it is 4.77 nM; for `CC(=O)N1CCP(=O)(c2cc3c(N[C@H](C)c4cccc(C(F)F)c4F)nc(C)nc3cn2)CC1` [Example 10, 1-acetyl-4-[4-({(1R)-1-[3-(difluoromethyl)-2-fluorophenyl]ethyl}amino)-2-methylpyrido[3,4-d]pyrimidin-6-yl]-1,4lambda^5-azaphosphinan-4-one] it is 7.8 nM.
To `Cc1nc(N[C@H](C)c2cccc(C(F)F)c2F)c2cc(P(=O)(C(C)C)C(C)C)c(C)nc2n1` [Example 129, N-{(1R)-1-[3-(difluoromethyl)-2-fluorophenyl]ethyl}-6-[di(propan-2-yl)phosphoryl]-2,7-dimethylpyrido[2,3-d]pyrimidin-4-amine] belongs 132 nM.

The values are drawn from patent US20240247015A1, “PHOSPHORUS DERIVATIVES AS NOVEL SOS1 INHIBITORS” (BAYER AKTIENGESELLSCHAFT, priority 2021, published 2024).
